Drawing on PubChem BioAssay (NCI), this text covers TGI and GI50 for twelve molecules.

Some test systems named below: HOP-62 NSCLC; MDA-MB-435; SNB-75 CNS; SK-MEL-2 melanoma; OVCAR-5 ovarian; MALME-3M melanoma; CCRF-CEM leukemia; SF-268 CNS; 786-0 renal; M14 melanoma; SF-295 CNS; EKVX NSCLC.
Common to all, as to assay: DTP human tumour cell line panel, 48 h

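Results reflect a 48-hour exposure of cells in 96-well plates to compound at five concentrations. GI50 marks 50% less growth. TGI denotes the concentration required for complete inhibition of growth.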

On to `O=c1/c(=C\c2ccccc2)sc2n1C(c1ccccc1)C1(O)CCCCC1N=2` (stereo not given), for which the TGI in the assay with HOP-62 NSCLC, in the assay on MDA-MB-435, with SNB-75 CNS, in the assay on SK-MEL-2 melanoma, with OVCAR-5 ovarian and with MALME-3M melanoma was over 100 µM in each case. For the same molecule, the TGI in the assay with CCRF-CEM leukemia, in the assay on SF-268 CNS, in the assay with 786-0 renal and in the assay with M14 melanoma was over 100 µM throughout.

On to `CN(C(=O)Cc1ccc(Cl)c(Cl)c1)[C@H]1CCCC[C@@H]1[N+]1(C)CCCC1`, for which the TGI in the assay on SF-295 CNS, with HOP-62 NSCLC, in the assay on MDA-MB-435, in the assay with SK-MEL-2 melanoma, in the assay on OVCAR-5 ovarian and in the assay on MALME-3M melanoma was over 100 µM throughout. Moreover, the TGI in the assay with SF-268 CNS, with 786-0 renal, in the assay on EKVX NSCLC and with M14 melanoma was over 100 µM in each case.

For `CCOC(=O)Oc1cc2c(c(OC)c1OC)-c1ccc(SC)c(=O)cc1C(NC(=O)C(F)(F)F)CC2` (stereo not given), the TGI (commonly the concentration at which net growth stops) was over 100 µM in the assay on SF-295 CNS; over 100 µM in the assay on HOP-62 NSCLC; under 0.001 µM with MDA-MB-435; over 100 µM in the assay with SNB-75 CNS; 51.4 µM in the assay with SK-MEL-2 melanoma; over 100 µM in the assay on OVCAR-5 ovarian. Moreover, the TGI came to 4.92 µM in the assay on CCRF-CEM leukemia, 13 µM in the assay on 786-0 renal and 38.8 µM with M14 melanoma. The values for the GI50 with SK-MEL-2 melanoma and in the assay with OVCAR-5 ovarian were 0.00303 µM and 18.2 µM, respectively.

Consider `COC(=O)c1ccccc1C#CC#Cc1ccccc1C(=O)OC`, for which the TGI in the assay with SF-295 CNS, with HOP-62 NSCLC, in the assay on MDA-MB-435, in the assay with SK-MEL-2 melanoma, with OVCAR-5 ovarian and in the assay on MALME-3M melanoma was over 10 µM in each case. Also, the TGI in the assay on CCRF-CEM leukemia, in the assay on SF-268 CNS, in the assay with 786-0 renal, in the assay with EKVX NSCLC and in the assay with M14 melanoma was over 10 µM throughout.

With `CCOC(=O)c1cc(C(=O)c2ccccc2)n2nc(-c3ccc(Cl)cc3)ccc12`, the TGI in the assay on SF-295 CNS is 54.2 µM; with HOP-62 NSCLC, 34.8 µM; with MDA-MB-435, over 100 µM; with SK-MEL-2 melanoma, 32.6 µM; in the assay on OVCAR-5 ovarian, 58 µM; in the assay with MALME-3M melanoma, 46.3 µM. In addition, the TGI is over 100 µM in the assay with CCRF-CEM leukemia; 27.6 µM in the assay with SF-268 CNS; 33 µM in the assay with 786-0 renal; 42.6 µM with EKVX NSCLC; 90.7 µM in the assay on M14 melanoma.

`O=C1/C(=C\c2cccc(Oc3ccccc3)c2)S(=O)(=O)C(c2ccccc2)N1c1ccccc1Cl` (stereo not given): the TGI was over 100 µM with SF-295 CNS; over 100 µM in the assay on HOP-62 NSCLC; 87 µM in the assay with MDA-MB-435; 74.5 µM with SNB-75 CNS; over 100 µM with SK-MEL-2 melanoma; over 100 µM in the assay on OVCAR-5 ovarian. The TGI in the assay with MALME-3M melanoma is over 100 µM; in the assay on CCRF-CEM leukemia, 51.2 µM; in the assay on 786-0 renal, over 100 µM; in the assay with EKVX NSCLC, 92.2 µM; in the assay on M14 melanoma, 89.1 µM.

For the molecule `Cc1sc2nc(-c3cc([N+](=O)[O-])c(Cl)cc3Cl)c(/C=N/N=C(N)N)n2c1C`, the TGI in the assay on SF-295 CNS is 36.4 µM; with HOP-62 NSCLC it was over 100 µM; in the assay with MDA-MB-435 it was 16.6 µM; with SK-MEL-2 melanoma, 5.78 µM; with OVCAR-5 ovarian, over 100 µM; with MALME-3M melanoma it was 39.3 µM. Also, the TGI with CCRF-CEM leukemia was over 100 µM; in the assay on SF-268 CNS, 66.1 µM; with 786-0 renal it was over 100 µM; in the assay with EKVX NSCLC, 48.4 µM; in the assay with M14 melanoma, 7 µM.

On to `O=C(/C=C/c1ccsc1)c1ccco1`, for which the TGI in the assay with SF-295 CNS was 27.2 µM; with HOP-62 NSCLC, 28.1 µM; in the assay with MDA-MB-435, over 50.3 µM; in the assay on SNB-75 CNS, 26 µM; with SK-MEL-2 melanoma, 38.9 µM; with OVCAR-5 ovarian it was 34.9 µM. The TGI with CCRF-CEM leukemia is 22.9 µM; in the assay with SF-268 CNS it was 38.5 µM; in the assay on 786-0 renal, 24.4 µM; in the assay with EKVX NSCLC, 36 µM; with M14 melanoma it was 24.2 µM.

In the case of `COc1cccc(-c2ccc3c4c2O[C@H]2c5[nH]c6ccccc6c5C[C@@]5(O)[C@@H](C3)N(CC3CC3)CC[C@]425)c1`, the TGI in the assay with SF-295 CNS turned out to be 3.08 µM; in the assay with HOP-62 NSCLC, 3.12 µM; in the assay with MDA-MB-435 it was 3.18 µM; in the assay with SK-MEL-2 melanoma, 3.69 µM; in the assay with OVCAR-5 ovarian, 20.8 µM; in the assay on MALME-3M melanoma, 2.88 µM. For the same molecule, the TGI in the assay with CCRF-CEM leukemia is over 100 µM; with SF-268 CNS it was 3.37 µM; with 786-0 renal, 3.09 µM; in the assay on EKVX NSCLC it was 9.5 µM; with M14 melanoma, 3.27 µM.

With `O=C(Nc1nc2c(=O)[nH]cnc2s1)c1ccccc1`, the TGI with SF-295 CNS, with HOP-62 NSCLC, with MDA-MB-435, in the assay with SNB-75 CNS, with SK-MEL-2 melanoma and in the assay with OVCAR-5 ovarian was over 100 µM in each case. Moreover, the TGI with MALME-3M melanoma, in the assay on CCRF-CEM leukemia, in the assay with SF-268 CNS, in the assay on 786-0 renal and with EKVX NSCLC was over 100 µM throughout.

On to `CCOc1cc(NC(C)=O)ccc1C(=O)NN1C(=O)C(Oc2ccccc2)C1c1ccccc1` (stereo not given), for which the TGI with SF-295 CNS, in the assay with HOP-62 NSCLC, in the assay on MDA-MB-435, in the assay on SNB-75 CNS, with SK-MEL-2 melanoma and in the assay with OVCAR-5 ovarian was over 100 µM each time. For the same molecule, the TGI with MALME-3M melanoma, with CCRF-CEM leukemia, in the assay with SF-268 CNS, in the assay on 786-0 renal and in the assay on EKVX NSCLC was over 100 µM each time.

Regarding `O=c1[nH]nc(-c2ccccc2)n1/N=C/c1c[nH]c2ccccc12`, the TGI with SF-295 CNS, in the assay on HOP-62 NSCLC, with MDA-MB-435, in the assay on SK-MEL-2 melanoma, in the assay with OVCAR-5 ovarian and with MALME-3M melanoma was over 100 µM each time. In addition, the TGI in the assay with CCRF-CEM leukemia, in the assay on SF-268 CNS, with 786-0 renal, in the assay with EKVX NSCLC and in the assay with M14 melanoma was over 100 µM in each case.
